Experimental data from patent publication US20250179047A1, “5-[7-(3,4-DIHYDRO-1H-ISOQUINOLINE-2-CARBONYL)-1,2,3,4 TETRAHYDROISOQUINOLIN-6-YL]-1H-PYRROLE-3-CARBOXAMIDE DERIVATIVES, PHARMACEUTICAL COMPOSITIONS CONTAINING THEM AND THEIR USES AS PRO-APOPTOTIC AGENTS” (LES LABORATOIRES SERVIER, priority 2022, published 2025).

How the values were obtained:
CYP3A4 = CYP3A4 (Homo sapiens (Human), UniProt P08684); assay: CYP3A4 inhibition determination in hepatic human microsomes; type: in vitro ADME; conditions: LC/MS-MS of specific metabolite
Description: The inhibitory potential was determined on CYP3 Å4 enzyme using hepatic human microsomes. A range of concentrations (adapted based on the solubility) of the tested compound were incubated in presence of a substrate having a specific metabolite of CYP3 Å4 enzyme.
Then, the formation of the metabolite was quantified using LC/MS-MS analysis and a curve corresponding to the concentration of the metabolite in function of the concentration of the test compound allowed to the calculation of the IC50 value.

BCL2 D111A = BCL2 D111A (Homo sapiens, UniProt P10415, D111A); assay: TR-FRET competitive binding assay, BCL2 D111A; conditions: Ki determined from IC50, read-out: TR_FRET EKI_Bcl2 D111A
Summary of the method: (§1)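 Competitive TR-FRET displacement of fluorescein-PUMA peptide (2 or 20 nM) from 0.5 nM terbium-labelled N-terminal Halo-fusion BCL2 (1-207, wild type or mutant) or BCLXL (2-196), expressed in E. coli. Buffer 50 mM Hepes pH 7.5, 150 mM NaCl, 5% DMSO; 2 h at 23°C. 520/495 nm ratio fitted over 11 points for IC50, converted to Ki.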

BCL2 G101V [1] = assay: TR-FRET competitive binding assay, BCL2 G101V; parameters: species or system human; conditions: ratio Ki BCL2 G101V / Ki BCL2 WT
Summary of the method: as §1

BCL2 G101V [2] = target: BCL2 G101V (Homo sapiens, UniProt P10415, G101V); assay: TR-FRET competitive binding assay, BCL2 G101V; conditions: BCL2 G101V; Ki determined from IC50; read-out: TR_FRET EKI_Bcl2 G101V
Summary of the method: as §1

BCLXL WT = BCLXL WT (Homo sapiens (Human), UniProt Q07817); assay: TR-FRET competitive binding assay, BCLXL WT; conditions: for Ki: BCLXL WT, Ki determined from IC50, read-out: TR_FRET EKI BclxL; for TR_FRET EKI BCLxL/WT selectivty ratio: ratio Ki BCLxL / Ki BCL2 WT
Summary of the method: as §1

BCL2 WT = BCL2 WT (Homo sapiens (Human), UniProt P10415); assay: TR-FRET competitive binding assay, BCL2 WT; conditions: Ki determined from IC50, read-out: TR_FRET EKI_Bcl2 WT
Summary of the method: as §1

KMS-12-PE Bcl-2 G101V = assay: In vitro cytotoxicity CellTiter-Glo 48 h, KMS-12-PE Bcl-2 G101V; type: cell-based; conditions: for Ratio (G101V/WT): C50 KMS-12-PE Bcl-2 G101V over C50 KMS-12-PE Bcl-2 WT; for IC50: CellTiter-Glo, 48 h, C50 = concentration needed to reach 50% of the cellular viability
Summary of the method: (§2)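 KMS-12-PE myeloma cells lentivirally transduced with Bcl-2 WT or G101V (TagRFP-sorted), exposed to compound 11-point dose-response for 48 h at 37 °C, 5% CO2. Viability read by CellTiter-Glo ATP luminescence; C50 is the concentration giving 50% cellular viability.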

BCL2 D103Y = BCL2 D103Y (Homo sapiens, UniProt P10415, D103Y); assay: TR-FRET competitive binding assay, BCL2 D103Y; conditions: Ki determined from IC50, read-out: TR_FRET EKI_Bcl2 D103Y
Summary of the method: as §1

KMS-12-PE Bcl-2 WT = assay: In vitro cytotoxicity CellTiter-Glo 48 h, KMS-12-PE Bcl-2 WT; type: cell-based; conditions: C50 = concentration needed to reach 50% of the cellular viability
Summary of the method: as §2

BCL2 F104I = BCL2 F104I (Homo sapiens, UniProt P10415, F104I); assay: TR-FRET competitive binding assay, BCL2 F104I; conditions: Ki determined from IC50, read-out: TR_FRET EKI_Bcl2 F104I
Summary of the method: as §1

KMS12PE Bcl2 D103V = assay: In vitro cytotoxicity CellTiterGlo 72 h, KMS12PE Bcl2 D103V; type: cell-based; conditions: Homo sapiens, KMS-12-PE, read-out: C50 nM, KMS12PE Bcl2 D103V
Description: (§3) KMS-12-PE (ACC 606) were purchased from the Leibniz-Institute DSMZ (Braunschweig, Germany) and were grown at 37° C. in a humidified atmosphere with 5% CO2 in media recommended by the suppliers. Lentiviral particles containing Bcl-2 wild type (also named “Bcl2 WT”), Bcl-2 mutated on G101V (also named “Bcl2 G101V”), Bcl-2 mutated on D103Y (also named “Bcl2 D103Y”), Bcl-2 mutated on D103V (also named “Bcl2 D103V”), Bcl-2 mutated on D103E (also named “Bcl2 D103E”), Bcl-2 mutated on F104I (also named “Bcl2 F104I”), Bcl-2 mutated on F104L (also named “Bcl2 F104L”), Bcl-2 mutated on D111A (also named “Bcl2 D111A”), Bcl-2 mutated on A113G (also named “Bcl2 A113G”), Bcl-2 mutated on R129L (also named “Bcl2 R129L”), Bcl-2 mutated on V156D (also named “Bcl2 V156D”) were cloned into pcLV-CMV-DEST-IRES-TagRFP. Lentiviral particles (1×10^6) were mixed with Polybrene at 8 μg/ml and transduced by spinoculation for 1 h at 32° C. and incubated overnight. After 8 days, TagRFP positive-cells were sorted by FACS. BCL2 expression was monitored by immunoblotting using anti-Flag and anti-BCL2 antibodies. Cells were seeded into 96-wells plates and treated with 1:3.16 serial dilution of compounds (9 different concentrations). Cell viability was assessed using CellTiterGlo reagent following treatment for 72 h. Results were normalized to the viability of cells without compounds (control wells). The C50 values were calculated using nonlinear regression algorithms in XCell software.

KMS12PE Bcl2 G101V = assay: In vitro cytotoxicity CellTiterGlo 72 h, KMS12PE Bcl2 G101V; type: cell-based; conditions: Homo sapiens, KMS-12-PE, read-out: C50 nM, KMS12PE Bcl2 G101V
Description: as §3

KMS12PE Bcl2 F104L = assay: In vitro cytotoxicity CellTiterGlo 72 h, KMS12PE Bcl2 F104L; type: cell-based; conditions: Homo sapiens, KMS-12-PE, read-out: C50 nM, KMS12PE Bcl2 F104L
Description: as §3

KMS12PE Bcl2 D103Y = assay: In vitro cytotoxicity CellTiterGlo 72 h, KMS12PE Bcl2 D103Y; type: cell-based; conditions: Homo sapiens, KMS-12-PE, read-out: C50 nM, KMS12PE Bcl2 D103Y
Description: as §3

KMS12PE Bcl2 A113G = assay: In vitro cytotoxicity CellTiterGlo 72 h, KMS12PE Bcl2 A113G; type: cell-based; conditions: Homo sapiens, KMS-12-PE, read-out: C50 nM, KMS12PE Bcl2 A113G
Description: as §3

KMS12PE Bcl2 V156D = assay: In vitro cytotoxicity CellTiterGlo 72 h, KMS12PE Bcl2 V156D; type: cell-based; conditions: Homo sapiens, KMS-12-PE, read-out: C50 nM, KMS12PE Bcl2 V156D
Description: as §3

KMS12PE Bcl2 D103E = assay: In vitro cytotoxicity CellTiterGlo 72 h, KMS12PE Bcl2 D103E; type: cell-based; conditions: Homo sapiens, KMS-12-PE, read-out: C50 nM, KMS12PE Bcl2 D103E
Description: as §3

KMS12PE Bcl2 F104I = assay: In vitro cytotoxicity CellTiterGlo 72 h, KMS12PE Bcl2 F104I; type: cell-based; conditions: Homo sapiens, KMS-12-PE, read-out: C50 nM, KMS12PE Bcl2 F104I
Description: as §3

KMS12PE Bcl2 D111A = assay: In vitro cytotoxicity CellTiterGlo 72 h, KMS12PE Bcl2 D111A; type: cell-based; conditions: Homo sapiens, KMS-12-PE, read-out: C50 nM, KMS12PE Bcl2 D111A
Description: as §3

KMS12PE Bcl2 WT = assay: In vitro cytotoxicity CellTiterGlo 72 h, KMS12PE Bcl2 WT; type: cell-based; conditions: Homo sapiens, KMS-12-PE, read-out: C50 nM, KMS12PE Bcl2 WT
Description: as §3

KMS12PE Bcl2 R129L = assay: In vitro cytotoxicity CellTiterGlo 72 h, KMS12PE Bcl2 R129L; type: cell-based; conditions: Homo sapiens, KMS-12-PE, read-out: C50 nM, KMS12PE Bcl2 R129L
Description: as §3

KMS12PE = assay: In vitro cytotoxicity CellTiterGlo 72 h, KMS12PE; type: cell-based; conditions: Homo sapiens, KMS-12-PE, read-out: C50 nM, KMS12PE
Description: as §3

BCLXL WT, sequence (Q07817 other isoform, or with tags, fused parts or gaps): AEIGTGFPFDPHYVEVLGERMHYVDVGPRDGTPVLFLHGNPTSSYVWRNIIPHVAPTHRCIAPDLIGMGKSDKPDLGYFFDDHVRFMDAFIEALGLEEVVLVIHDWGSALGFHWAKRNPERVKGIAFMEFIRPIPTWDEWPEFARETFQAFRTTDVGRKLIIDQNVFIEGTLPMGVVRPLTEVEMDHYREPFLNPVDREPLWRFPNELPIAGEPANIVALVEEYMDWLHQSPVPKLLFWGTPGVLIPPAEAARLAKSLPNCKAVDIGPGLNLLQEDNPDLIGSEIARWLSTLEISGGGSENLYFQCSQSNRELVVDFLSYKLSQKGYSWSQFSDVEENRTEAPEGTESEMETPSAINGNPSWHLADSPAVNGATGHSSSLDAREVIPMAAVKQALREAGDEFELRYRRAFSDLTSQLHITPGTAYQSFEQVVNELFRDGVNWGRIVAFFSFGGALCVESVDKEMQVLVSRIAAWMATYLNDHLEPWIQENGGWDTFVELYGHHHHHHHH
CYP3A4, sequence (P08684 whole entry): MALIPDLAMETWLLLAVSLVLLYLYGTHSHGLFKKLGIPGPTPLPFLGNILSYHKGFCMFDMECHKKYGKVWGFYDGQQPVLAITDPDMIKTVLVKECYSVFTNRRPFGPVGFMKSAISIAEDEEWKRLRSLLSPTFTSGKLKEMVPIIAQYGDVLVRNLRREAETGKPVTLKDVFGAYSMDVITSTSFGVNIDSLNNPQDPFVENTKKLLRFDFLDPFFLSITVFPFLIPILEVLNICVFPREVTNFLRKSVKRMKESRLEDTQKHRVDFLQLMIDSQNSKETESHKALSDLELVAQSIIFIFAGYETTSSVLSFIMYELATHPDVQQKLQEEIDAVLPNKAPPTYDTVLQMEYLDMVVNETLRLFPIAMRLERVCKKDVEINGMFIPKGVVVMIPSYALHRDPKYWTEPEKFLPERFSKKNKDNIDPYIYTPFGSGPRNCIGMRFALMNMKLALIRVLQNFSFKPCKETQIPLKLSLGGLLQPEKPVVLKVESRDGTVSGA

Compound | IC50 (CYP3A4) | TR_FRET EKI G101V/WT selectivty ratio (BCL2 G101V [1]) | Ki (BCL2 G101V [2]) | Ki (BCLXL WT) | TR_FRET EKI BCLxL/WT selectivty ratio (BCLXL WT) | Ki (BCL2 WT) | Ratio (G101V/WT) (KMS-12-PE Bcl-2 G101V) | Ki (BCL2 D103Y) | IC50 (KMS-12-PE Bcl-2 G101V; Homo sapiens, KMS-12-PE) | IC50 (KMS-12-PE Bcl-2 WT; Homo sapiens, KMS-12-PE) | also measured
Cc1c(N(C(=O)c2cc(-c3cc4c(cc3C(=O)N3Cc5ccccc5C[C@H]3CN3CCCCC3)CN(C(=O)Cc3ccc(OCCN5CCOC(C)C5)cc3F)CC4)n(C)c2C)c2ccc(O)cc2)cc(C#N)n1C (single isomer, unassigned) [Example 109, N-(5-cyano-1,2-dimethyl-1H-pyrrol-3-yl)-5-[2-(2-{2-fluoro-4-[2-((2R or S)-2-methylmorpholin-4-yl)ethoxy]phenyl}acetyl)-7-[(3S)-3-[(piperidin-1-yl)methyl]-1,2,3,4-tetrahydroisoquinoline-2-carbonyl]-1,2,3,4-tetrahydroisoquinolin-6-yl]-N-(4-hydroxyphenyl)-1,2-dimethyl-1H-pyrrole-3-carboxamide] | > 5000 nM | 5.5 | 0.2 nM | 3.9 nM | 90.7 | 0.04 nM | 4.38 | 0.15 nM | – | – | Ki (BCL2 D111A): 0.12 nM; IC50 (KMS-12-PE Bcl-2 G101V): 0.022 µM; IC50 (KMS-12-PE Bcl-2 WT): 0.0048 µM; Ki (BCL2 F104I): 0.25 nM
CC1(C)CCC(CN2CCN(c3ccc(C(=O)NS(=O)(=O)c4ccc(NCC5CCOCC5)c([N+](=O)[O-])c4)c(Oc4cnc5[nH]ccc5c4)c3)CC2)=C(c2ccc(Cl)cc2)C1 [ABT199, Venetoclax, reference compound] | – | – | – | – | – | – | – | – | – | – | IC50 (KMS12PE Bcl2 D103V): 590 nM; IC50 (KMS12PE Bcl2 G101V): 1050 nM; IC50 (KMS12PE Bcl2 F104L): 1420 nM; IC50 (KMS12PE Bcl2 D103Y): 1140 nM; IC50 (KMS12PE Bcl2 A113G): 120 nM; IC50 (KMS12PE Bcl2 V156D): 139 nM; IC50 (KMS12PE Bcl2 D103E): 260 nM; IC50 (KMS12PE Bcl2 F104I): 1300 nM; IC50 (KMS12PE Bcl2 D111A): 22.4 nM; IC50 (KMS12PE Bcl2 WT): 30.2 nM; IC50 (KMS12PE Bcl2 R129L): 42.6 nM; IC50 (KMS12PE): 5.5 nM
Cc1c(N(C(=O)c2cc(-c3cc4c(cc3C(=O)N3Cc5ccccc5C[C@H]3C)CN(C(=O)c3ccccc3)CC4)n(C)c2C)c2ccc(O)cc2)cc(C#N)n1C [Example 25, 5-{2-benzoyl-7-[(3R)-3-methyl-1,2,3,4-tetrahydroisoquinoline-2-carbonyl]-1,2,3,4-tetrahydroisoquinolin-6-yl}-N-(5-cyano-1,2-dimethyl-1H-pyrrol-3-yl)-N-(4-hydroxyphenyl)-1,2-dimethyl-1H-pyrrole-3-carboxamide] | 12000 nM | 7.6 | 1.3 nM | 3.2 nM | 18.8 | 0.17 nM | 12.4 | 0.48 nM | 0.0778 µM | 0.0063 µM | –
Cc1c(N(C(=O)c2cc(-c3cc4c(cc3C(=O)N3Cc5ccccc5C[C@H]3CN3CCCC3)CN(C(=O)Cc3ccc(OCCN(C)C5CC5)cc3F)CC4)n(C)c2C)c2ccc(O)cc2)cc(C#N)n1C [Example 101, N-(5-cyano-1,2-dimethylpyrrol-3-yl)-5-{2-[2-(4-{2-[cyclopropyl(methyl)amino]ethoxy}-2-fluorophenyl)acetyl]-7-{[(3S)-3-(pyrrolidin-1-ylmethyl)-3,4-dihydro-1H-isoquinolin-2-yl]carbonyl}-3,4-dihydro-1H-isoquinolin-6-yl}-N-(4-hydroxyphenyl)-1,2-dimethylpyrrole-3-carboxamide] | > 5000 nM | 4.7 | 0.1 nM | 1.9 nM | 105.6 | 0.02 nM | 4.86 | 0.07 nM | 0.0806 µM | 0.0166 µM | –
